The numbers were not newly measured in patent publication US20190209710A1, “[…] AND CHEWING GUM […] A […] FOR THE TASTE-BASED DETECTION OF VIRUSES” (Julius-Maximilians-Universitaet Wuerzburg, priority 2016, published 2019), which cites them from elsewhere.

SMILES strings stand for the structures.

The subject of one data set is viral sialidases. The note with it: literature: Beau et al., Eur. J. Biochem., 106 (1980) 531-540.
A further data set has as its system bacterial sialidases. The note with it: literature: Beau et al., Eur. J. Biochem., 106 (1980) 531-540.

For `CO[C@H]1CC(O)(C(=O)O)O[C@@H]([C@H](O)[C@H](O)CO)[C@@H]1NC(C)=O` (some centres unmarked) [4-methoxy-Neu5Ac], in the data set with viral sialidases, the “cleavage by viral sialidases” value was “very quickly”. Moreover, the “cleavage by bacterial sialidases” value in the data set with bacterial sialidases is given as “not cut”.
